Where two headings read alike, the source gives them in different places.
Experiments:
Type in all cases: in vivo
[1] = tested on: Triticum aestivum (spring wheat); details: TRZAS
Text: (§1) Greenhouse Trial Methodology—Evaluation of Postemergence Herbicidal Effect
(§2) Seeds of the desired test plant species were planted in a 90:10% v/v (volume/volume) mixture of PRO-MIX® BX (Premier Tech Horticulture, Quakertown, Pa., USA) and PROFILE® GREENS GRADE™ (Profile Products LLC, Buffalo Grove, Ill., USA) planting mixture, which typically has a pH of 5.2 to 6.2 and an organic matter content of at least 50 percent, in plastic pots with a surface area of 103.2 square centimeters (cm^2). In some aspects, to help ensure good germination and healthy plants, a fungicide treatment and/or other chemical or physical treatment was applied. The plants were grown for 7-36 days (d) in a greenhouse with an approximate 14-hour (h) photoperiod which was maintained at about 23° C. during the day and 22° C. during the night. Nutrients and water were added on a regular basis and supplemental lighting was provided with overhead metal halide 1000-Watt lamps as necessary. The plants were employed for testing when they reached the second or third true leaf stage.
(§3) Emulsifiable concentrates of each of each pyridine carboxylate herbicide (Compound A or Compound B) were prepared at 100 grams acid equivalent per liter (g ae/L). The emulsifiable concentrates also included a safener, at 120 grams active ingredient per liter (g ai/L). An aliquot of each emulsifiable concentrate was placed in a 25 mL glass vial and diluted with an aqueous mixture of 1.25% (v/v) ACTIROB® B esterified rapeseed oil (Bayer Crop Science, Research Triangle Park, N.C., USA) or MSO® Concentrate with LECI-TECH® methylated soybean oil (Loveland Products, Loveland, Colo., USA) to obtain concentrated stock solutions at the highest application rate for each herbicide, based upon a 12 milliliter (mL) application volume at a rate of 187 liters per hectare (L/ha). The concentrated stock solutions were further diluted with an aqueous mixture of 1.25% v/v ACTIROB® B or MSO® Concentrate with LECI-TECH® to obtain stock solutions at reduced application rates for each herbicide. Spray solutions of the herbicide combinations (Compound A or Compound B plus the CBI herbicide) were prepared by adding weighed amounts or aliquots of the CBI herbicide to the stock solutions of Compound A or Compound B to form 12-mL spray solutions in two-way combinations.
(§4) The spray solutions were applied to the plant material with an overhead Mandel track sprayer equipped with 8002E nozzles calibrated to deliver 187 L/ha over an application area of 0.503 square meters (m^2) at a spray height of 18 inches (43 centimeters (cm)) above the average plant canopy. Control plants were sprayed in the same manner with the solvent blank. All pyridine carboxylate herbicide (component a) application rates are given as “g ae/ha” and all CBI herbicide (component b) application rates are given as “g ai/ha.”
(§5) The treated plants and control plants were placed in a greenhouse as described above and watered by sub-irrigation to prevent wash-off of the test compounds. After 20-22 d, the condition of the test plants as compared with that of the control plants was determined visually and scored on a scale of 0 to 100 percent where 0 corresponds to no injury and 100 corresponds to complete kill.

[2] = tested on: Cyperus esculentus (nutsedge); experiment: Greenhouse postemergence herbicidal effect, visual injury after 20-22 d; details: Table 1, CYPES
Text: as §1, §2, §3, §4, §5

[3] = tested on: Lolium multiflorum (Italian rye grass); experiment: as above; details: Table 2, LOLMU
Text: as §1, §2, §3, §4, §5

Kochia scoparia (kochia) = experiment: as above; details: KCHSC
Text: as §1, §2, §3, §4, §5

[4] = tested on: Matricaria chamomilla (wild chamomile); experiment: as above; details: MATCH
Text: as §1, §2, §3, §4, §5

[5] = tested on: Brassica napus (winter rape); experiment: as above; details: BRSNW
Text: as §1, §2, §3, §4, §5

[6] = tested on: Brassica napus (spring rape); experiment: as above; details: BRSNN
Text: as §1, §2, §3, §4, §5

[7] = tested on: Salsola kali (Russian thistle); experiment: as above; details: SASKR
Text: as §1, §2, §3, §4, §5

[8] = tested on: Abutilon theophrasti (velvetleaf); experiment: as above; details: ABUTH
Text: as §1, §2, §3, §4, §5

[9] = tested on: Euphorbia heterophylla (poinsettia); experiment: as above; details: Table 1, EPHHL
Text: as §1, §2, §3, §4, §5

[10] = tested on: Amaranthus retroflexus (pigweed); experiment: as above; details: AMARE
Text: as §1, §2, §3, §4, §5

Glycine max (soybean) = experiment: as above; details: Table 1, GLXMA
Text: as §1, §2, §3, §4, §5

N#CCOC(=O)c1nc(-c2ccc3cc[nH]c3c2F)c(F)c(N)c1Cl [Compound A, cyanomethyl 4-amino-3-chloro-5-fluoro-6-(7-fluoro-1H-indol-6-yl)pyridine-2-carboxylate]
Obs % visual injury ([1]; Table 3, Compound A 7.5 g/ha): 3%
Obs % visual injury ([1]; Table 3, Compound A 10 g/ha): 3%
Obs % visual injury ([1]; Table 3, Compound A 15 g/ha): 0%
Obs % visual injury ([1]; Table 4, Compound A 7.5 g/ha): 3%
Obs % visual injury ([1]; Table 4, Compound A 10 g/ha): 3%
Obs % visual injury ([1]; Table 4, Compound A 15 g/ha): 0%
Obs % visual injury ([2]; Compound A 7.5 g/ha): 30%
Obs % visual injury ([2]; Compound A 10 g/ha): 8%
Obs % visual injury ([3]; Compound A 7.5 g/ha): 0%
Obs % visual injury ([3]; Compound A 10 g/ha): 0%
Obs % visual injury (Kochia scoparia (kochia); Table 1, Compound A 7.5 g/ha): 75%
Obs % visual injury (Kochia scoparia (kochia); Table 1, Compound A 10 g/ha): 73%
Obs % visual injury (Kochia scoparia (kochia); Table 2, Compound A 7.5 g/ha): 60%
Obs % visual injury (Kochia scoparia (kochia); Table 2, Compound A 10 g/ha): 65%
Obs % visual injury (Kochia scoparia (kochia); Table 3, Compound A 7.5 g/ha): 70%
Obs % visual injury (Kochia scoparia (kochia); Table 3, Compound A 10 g/ha): 70%
Obs % visual injury (Kochia scoparia (kochia); Table 3, Compound A 15 g/ha): 70%
Obs % visual injury (Kochia scoparia (kochia); Table 4, Compound A 7.5 g/ha): 70%
Obs % visual injury (Kochia scoparia (kochia); Table 4, Compound A 10 g/ha): 70%
Obs % visual injury (Kochia scoparia (kochia); Table 4, Compound A 15 g/ha): 70%
Obs % visual injury ([4]; Table 3, Compound A 7.5 g/ha): 8%
Obs % visual injury ([4]; Table 3, Compound A 10 g/ha): 15%
Obs % visual injury ([4]; Table 3, Compound A 15 g/ha): 10%
Obs % visual injury ([4]; Table 4, Compound A 7.5 g/ha): 8%
Obs % visual injury ([4]; Table 4, Compound A 10 g/ha): 15%
Obs % visual injury ([4]; Table 4, Compound A 15 g/ha): 10%
Obs % visual injury ([5]; Table 3, Compound A 7.5 g/ha): 60%
Obs % visual injury ([5]; Table 3, Compound A 10 g/ha): 60%
Obs % visual injury ([5]; Table 3, Compound A 15 g/ha): 75%
Obs % visual injury ([5]; Table 4, Compound A 7.5 g/ha): 60%
Obs % visual injury ([5]; Table 4, Compound A 10 g/ha): 60%
Obs % visual injury ([5]; Table 4, Compound A 15 g/ha): 75%
Obs % visual injury ([6]; Table 1, Compound A 7.5 g/ha): 65%
Obs % visual injury ([6]; Table 1, Compound A 10 g/ha): 65%
Obs % visual injury ([6]; Table 2, Compound A 7.5 g/ha): 73%
Obs % visual injury ([6]; Table 2, Compound A 10 g/ha): 83%
Obs % visual injury ([7]; Table 3, Compound A 7.5 g/ha): 55%
Obs % visual injury ([7]; Table 3, Compound A 10 g/ha): 58%
Obs % visual injury ([7]; Table 3, Compound A 15 g/ha): 65%
Obs % visual injury ([7]; Table 4, Compound A 7.5 g/ha): 55%
Obs % visual injury ([7]; Table 4, Compound A 10 g/ha): 58%
Obs % visual injury ([7]; Table 4, Compound A 15 g/ha): 65%
Obs % visual injury ([8]; Table 1, Compound A 7.5 g/ha): 68%
Obs % visual injury ([8]; Table 1, Compound A 10 g/ha): 80%
Obs % visual injury ([8]; Table 2, Compound A 7.5 g/ha): 68%
Obs % visual injury ([8]; Table 2, Compound A 10 g/ha): 78%
Obs % visual injury ([9]; Compound A 7.5 g/ha): 97%
Obs % visual injury ([9]; Compound A 10 g/ha): 97%
Obs % visual injury ([10]; Table 1, Compound A 7.5 g/ha): 88%
Obs % visual injury ([10]; Table 1, Compound A 10 g/ha): 88%
Obs % visual injury ([10]; Table 3, Compound A 7.5 g/ha): 78%
Obs % visual injury ([10]; Table 3, Compound A 10 g/ha): 78%
Obs % visual injury ([10]; Table 3, Compound A 15 g/ha): 83%
Obs % visual injury ([10]; Table 4, Compound A 7.5 g/ha): 78%
Obs % visual injury ([10]; Table 4, Compound A 10 g/ha): 78%
Obs % visual injury ([10]; Table 4, Compound A 15 g/ha): 83%
Obs % visual injury (Glycine max (soybean); Compound A 7.5 g/ha): 80%
Obs % visual injury (Glycine max (soybean); Compound A 10 g/ha): 90%

Reference: patent US20220000110A1, “COMPOSITIONS COMPRISING PYRIDINE CARBOXYLATE HERBICIDES AND CELLULOSE BIOSYNTHESIS INHIBITOR HERBICIDES” (priority 2018, published 2022)
